Measurements as given in patent US20220386606A1, “SPECIFICALLY SUBSTITUTED 3-PHENYL-5-SPIROCYCLOPENTYL-3-PYRROLIN-2-ONES AND THEIR USE AS HERBICIDES” (Bayer Aktiengesellschaft, priority 2019, published 2022).

Tests used:
[1] = system: AVEFA; test: Pre-emergence herbicidal action against AVEFA; type: in vivo, Avena fatua; conditions: 320 g/ha, scored visually after 3 weeks vs untreated controls
Source text: (§1) Seeds of monocotyledonous and dicotyledonous weed plants and crop plants are laid out in sandy loam soil in wood-fiber pots and covered with soil. The compounds of the invention, formulated in the form of wettable powders (WP) or as emulsion concentrates (EC), are then applied to the surface of the covering soil as aqueous suspension or emulsion at a water application rate equating to 600 to 800 L/ha with addition of 0.2% wetting agent.
(§2) After the treatment, the pots are placed in a greenhouse and kept under good growth conditions for the trial plants. The damage to the test plants is scored visually after a test period of 3 weeks by comparison with untreated controls (herbicidal activity in percent (%): 100% activity=the plants have died, 0% activity=like control plants).

[2] = system: SETVI; test: Pre-emergence herbicidal action against SETVI; type: in vivo, Setaria viridis; conditions: 320 g/ha, scored visually after 3 weeks vs untreated controls
Source text: as §1, §2

[3] = system: SETVI; test: Post-emergence herbicidal action against SETVI; type: in vivo, Setaria viridis; conditions: 80 g/ha, visual assessment about 3 weeks after treatment vs untreated controls
Procedure: (§3) Seeds of monocotyledonous and dicotyledonous weed and crop plants are laid out in sandy loam soil in wood-fiber pots, covered with soil and cultivated in a greenhouse under good growth conditions. 2 to 3 weeks after sowing, the test plants are treated at the one-leaf stage. The compounds of the invention, formulated in the form of wettable powders (WP) or as emulsion concentrates (EC), are then sprayed onto the green parts of the plants as aqueous suspension or emulsion at a water application rate equating to 600 to 800 l/ha with addition of 0.2% wetting agent. After the test plants have been left to stand in the greenhouse under optimal growth conditions for about 3 weeks, the action of the preparations is assessed visually in comparison to untreated controls (herbicidal action in percent (%): 100% activity=the plants have died, 0% activity=like control plants).

[4] = system: DIGSA; test: Pre-emergence herbicidal action against DIGSA; type: in vivo, Digitaria sanguinalis; conditions: 320 g/ha, scored visually after 3 weeks vs untreated controls
Source text: as §1, §2

[5] = system: LOLRI; test: Pre-emergence herbicidal action against LOLRI (Table 8, titled post-emergence at 320 g/ha); type: in vivo, Lolium rigidum; conditions: table stands in the pre-emergence section
Source text: as §1, §2

[6] = system: ECHCG; test: Pre-emergence herbicidal action against ECHCG; type: in vivo, Echinochloa crus-galli; conditions: 320 g/ha, scored visually after 3 weeks vs untreated controls
Source text: as §1, §2

[7] = system: ALOMY; test: Pre-emergence herbicidal action against ALOMY; type: in vivo, Alopecurus myosuroides; conditions: 320 g/ha, scored visually after 3 weeks vs untreated controls
Source text: as §1, §2

[8] = system: LOLRI; test: Post-emergence herbicidal action against LOLRI; type: in vivo, Lolium rigidum; conditions: 80 g/ha, visual assessment about 3 weeks after treatment vs untreated controls
Procedure: as §3

[9] = system: ALOMY; test: Post-emergence herbicidal action against ALOMY; type: in vivo, Alopecurus myosuroides; conditions: 80 g/ha, visual assessment after about 3 weeks
Procedure: as §3

[10] = system: ECHCG; test: Post-emergence herbicidal action against ECHCG; type: in vivo, Echinochloa crus-galli; conditions: 80 g/ha, visual assessment about 3 weeks after treatment vs untreated controls
Procedure: as §3

[11] = system: DIGSA; test: Post-emergence herbicidal action against DIGSA; type: in vivo, Digitaria sanguinalis; conditions: 80 g/ha, visual assessment about 3 weeks after treatment vs untreated controls
Procedure: as §3

[12] = system: AVEFA; test: Post-emergence herbicidal action against AVEFA; type: in vivo, Avena fatua; conditions: 80 g/ha, visual assessment after about 3 weeks
Procedure: as §3

Row | Compound | Pre-emergence action against AVEFA in % [1] | Pre-emergence action against SETVI in % [2] | Post-emergence action against SETVI in % [3] | Pre-emergence action against DIGSA in % [4] | Pre-emergence herbicidal action against LOLRI in % [5] | Pre-emergence action against ECHCG in % [6] | Pre-emergence action against ALOMY in % [7] | Post-emergence action against LOLRI in % [8] | Post-emergence action against ALOMY in % [9] | Post-emergence action against ECHCG in % [10] | Post-emergence action against DIGSA in % [11] | Post-emergence action against AVEFA in % [12]
1 | C=CCOCC1CCC2(C1)NC(=O)C(c1c(F)cc(C#CC)cc1OC)=C2O (centres unmarked) [Example I-54] | 80% | 100% | 100% | 100% | 100% | 100% | 100% | 90% | 100% | 100% |  | 
2 | CC#Cc1cc(Br)c(C2=C(OC(=O)OCC)C3(CCC(COC)C3)NC2=O)c(OCC)c1 (centres unmarked) [Example P-94] | 100% | 100% | 100% | 100% | 100% | 100% | 100% | 90% |  | 100% | 80% | 
3 | CC#Cc1cc(Br)c(C2=C(OC(=O)OCC)C3(CCC(COC)C3)NC2=O)c(OCC)c1 (centres unmarked) [Example P-90] | 100% | 100% | 100% | 100% | 100% | 100% | 100% | 100% | 100% | 100% | 90% | 80%
4 | C#CCOCC1CCC2(C1)NC(=O)C(c1c(F)cc(C#CC)cc1OC)=C2O (centres unmarked) [Example I-74] | 90% | 100% | 100% | 100% | 100% | 100% | 100% | 90% | 90% | 100% | 90% | 80%
5 | CC#Cc1cc(F)c(C2=C(O)C3(CCC(COCCC)C3)NC2=O)c(OC)c1 (centres unmarked) [Example I-56] |  | 100% | 100% | 100% | 100% | 100% | 80% | 80% | 90% | 100% | 90% | 90%
6 | CC#Cc1cc(C)c(C2=C(O)C3(CCC(COCC)C3)NC2=O)c(F)c1 (centres unmarked) [Example I-37] |  | 100% | 100% | 90% | 100% | 100% | 80% | 90% | 100% | 100% | 100% | 100%
7 | CC#Cc1cc(F)c(C2=C(O)C3(CCC(COCC)C3)NC2=O)c(OC)c1 (centres unmarked) [Example I-43] | 100% | 100% | 100% | 100% | 100% | 100% | 100% | 90% | 100% | 100% |  | 90%
8 | C=CCOCC1CCC2(C1)NC(=O)C(c1c(C)cc(C#CC)cc1OC)=C2OC(=O)OCC (centres unmarked) [Example P-68] |  | 100% | 100% | 100% | 100% | 100% | 100% | 90% | 100% | 100% | 90% | 90%
9 | CC#Cc1cc(Br)c(C2=C(OC(=O)C(C)C)C3(CCC(COC)C3)NC2=O)c(CC)c1 (centres unmarked) [Example P-45] |  | 80% |  |  |  |  |  |  |  |  |  | 
10 | C=CCOCC1CCC2(C1)NC(=O)C(c1c(F)cc(C#CC)cc1OC)=C2OC(=O)OCC (centres unmarked) [Example P-78] |  | 100% | 100% | 100% | 100% | 100% | 100% |  | 100% | 100% | 90% | 
11 | CC#Cc1cc(F)c(C2=C(O)C3(CCC(COCCC)C3)NC2=O)c(OC)c1 (centres unmarked) [Example I-57] |  | 100% | 100% | 100% | 100% | 100% | 100% | 80% |  | 100% | 90% | 
12 | CC#Cc1cc(C)c(C2=C(O)C3(CCC(COC)C3)NC2=O)c(F)c1 (centres unmarked) [Example I-34] |  | 100% | 100% | 100% | 100% |  |  | 100% | 100% | 100% | 100% | 90%
